In this test the test system is KB. Kind of test: Cytotoxicity against human KB cells. Format: functional. Particulars: read-out: ED50 (the source's name).

Values after ≈ are worked out from the molar mass of the structure shown.

As to `CO[C@H]1C[C@H](O[C@H]2CC[C@@]3(CO)[C@H](CC[C@@H]4[C@@H]3CC[C@]3(C)[C@@H](C5=CC(=O)OC5)CC[C@]43O)C2)O[C@H](C)[C@H]1O` [MAQUIROSIDE A], the EC50 is 0.013 µg/mL (≈ 0.0243 µM).

These data come from ChEMBL document CHEMBL1150711, “Maquiroside A, a new cytotoxic cardiac glycoside from Maquira calophylla” (1987).
